Reference: patent publication US8158634B2, “Compounds and compositions as inhibitors of cannabinoid receptor 1 activity” (IRM LLC, priority 2004, dated 2012)

Target: T1, human cannabinoid receptor 2 (CB2) (Homo sapiens, UniProt P34972)
T1 construct: expressed in transfected cells
Test: CB2 in vitro assays on CHO cell membranes ([3H]-CP55940 ligand binding / GTPγS binding), Ki by Cheng-Prusoff
Conditions: membranes of CHO cells stably expressing human CB2; EC50 converted by Cheng-Prusoff
Protocol: Homogenized membranes are prepared from CHO cell clones stably expressing a human cannabinoid receptor 1 (CB1) or human cannabinoid receptor 2 (CB2). Cells are grown and scrapped from 15 cm tissue culture plates, and then subsequently centrifuged down. Cells are washed once with cold PBS, and resuspended in <20 ml of Buffer A (20 mM HEPES, pH 7.4, 10 mM EDTA, EDTA-free complete protease inhibitor cocktail [1 tablet/25 ml]). The cell suspension is homogenized on ice, using a Polytron homogenizer at 25000 rpm at three intervals of 15 seconds each. The homogenate is first centrifuged at 2000 rpm on a tabletop low speed centrifuge for 10 minutes. The supernatant, after passing through a cell strainer, is then centrifuged at 50,000×g for 25 minutes at 4° C. The pellet is resuspended into buffer B (15% glycerol, 20 mM HEPES, pH 7.4, 0.1 mM EDTA, EDTA-free complete protease inhibitor cocktail [1 tablet/10 ml]). Protein concentration of the prep is determined using the BCA Protein Assay kit using BSA as standard. The membranes are aliquoted and kept frozen at −80° C.
[^3H]-CP55940 ligand binding assay: Solutions of test compounds ranging from 100 μM to 0.01 nM are prepared in DMSO. The desired amount of membrane prep is diluted with ice-cold assay buffer (50 mM Tris-HCl, 2.5 mM EDTA, 5 mM MgCl2, 0.05% BSA, pH 7.4) and vortexed well. […]

T1 sequence (P34972 whole entry): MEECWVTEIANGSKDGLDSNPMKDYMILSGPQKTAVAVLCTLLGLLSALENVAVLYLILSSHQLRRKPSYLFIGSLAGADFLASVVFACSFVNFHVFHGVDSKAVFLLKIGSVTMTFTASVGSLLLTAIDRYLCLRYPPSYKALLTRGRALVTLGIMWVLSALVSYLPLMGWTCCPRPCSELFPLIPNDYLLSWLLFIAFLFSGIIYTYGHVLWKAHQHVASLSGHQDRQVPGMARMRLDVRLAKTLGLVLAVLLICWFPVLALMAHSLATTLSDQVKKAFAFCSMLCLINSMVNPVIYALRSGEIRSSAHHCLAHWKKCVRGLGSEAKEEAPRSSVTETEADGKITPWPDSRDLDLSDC

Ki: > 5 µM
Compound: O=c1c2cnn(-c3ccccc3)c2nc(-c2ccccc2F)n1-c1ccc(Br)cc1 [Compound 19, 5-(4-Bromo-phenyl)-6-(2-fluoro-phenyl)-1-phenyl-1,5-dihydro-pyrazolo[3,4-d]pyrimidin-4-one]
